Data reported in the supplement of paper PMC10307832.

Columns and labels:
Assay in all cases: relative viability (nuclei count vs DMSO), 5 days (fraction); higher = more cells survive
KN-93 + Trametinib = compound: CN(C/C=C/C1=CC=C(C=C1)Cl)CC2=CC=CC=C2N(CCO)S(=O)(=O)C3=CC=C(C=C3)OC [KN-93] + CC(=O)Nc1cccc(-n2c(=O)n(C3CC3)c(=O)c3c(Nc4ccc(I)cc4F)n(C)c(=O)c(C)c32)c1 [Trametinib] (partner 0.02 µM)
Outline: (§1)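 Values are medians from duplicate plates. Each reflects relative viability, defined as the nuclei count of treated wells over that of vehicle wells. Lung cancer cell lines in 1536-well plates were pin-tool dosed one day after seeding with one drug alone or with a fixed anchor-drug dose plus five library-drug doses (not always all listed) in √10 steps, then fixed, stained and imaged at 4× after 5 days.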

KN-93 + Palbociclib = compound: CN(C/C=C/C1=CC=C(C=C1)Cl)CC2=CC=CC=C2N(CCO)S(=O)(=O)C3=CC=C(C=C3)OC [KN-93] + CC(=O)c1c(C)c2cnc(Nc3ccc(N4CCNCC4)cn3)nc2n(C2CCCC2)c1=O [Palbociclib] (partner 0.5 µM)
Outline: as §1

KN-93 + Luminespib = compound: CN(C/C=C/C1=CC=C(C=C1)Cl)CC2=CC=CC=C2N(CCO)S(=O)(=O)C3=CC=C(C=C3)OC [KN-93] + CCNC(=O)c1noc(-c2cc(C(C)C)c(O)cc2O)c1-c1ccc(CN2CCOCC2)cc1 [Luminespib] (partner 0.01 µM)
Outline: as §1

KN-93 + Lapatinib = compound: CN(C/C=C/C1=CC=C(C=C1)Cl)CC2=CC=CC=C2N(CCO)S(=O)(=O)C3=CC=C(C=C3)OC [KN-93] + CS(=O)(=O)CCNCc1ccc(-c2ccc3ncnc(Nc4ccc(OCc5cccc(F)c5)c(Cl)c4)c3c2)o1 [Lapatinib] (partner 2 µM)
Outline: as §1

KN-93 + Pictilisib = compound: CN(C/C=C/C1=CC=C(C=C1)Cl)CC2=CC=CC=C2N(CCO)S(=O)(=O)C3=CC=C(C=C3)OC [KN-93] + CS(=O)(=O)N1CCN(Cc2cc3nc(-c4cccc5[nH]ncc45)nc(N4CCOCC4)c3s2)CC1 [Pictilisib] (partner 1 µM)
Outline: as §1

Cell Line	relative viability (KN-93 + Trametinib; first compound 0.08 µM)	relative viability (KN-93 + Trametinib; first compound 0.253 µM)	relative viability (KN-93 + Trametinib; first compound 2.53 µM)	relative viability (KN-93 + Trametinib; first compound 8 µM)	relative viability (KN-93 + Palbociclib; first compound 0.08 µM)	relative viability (KN-93 + Palbociclib; first compound 0.253 µM)	relative viability (KN-93 + Palbociclib; first compound 2.53 µM)	relative viability (KN-93 + Palbociclib; first compound 8 µM)	relative viability (KN-93 + Luminespib; first compound 0.08 µM)	relative viability (KN-93 + Luminespib; first compound 0.253 µM)	relative viability (KN-93 + Luminespib; first compound 2.53 µM)	relative viability (KN-93 + Luminespib; first compound 8 µM)	relative viability (KN-93 + Lapatinib; first compound 0.08 µM)	relative viability (KN-93 + Lapatinib; first compound 0.253 µM)	relative viability (KN-93 + Lapatinib; first compound 2.53 µM)	relative viability (KN-93 + Lapatinib; first compound 8 µM)	relative viability (KN-93 + Pictilisib; first compound 0.08 µM)	relative viability (KN-93 + Pictilisib; first compound 0.253 µM)	relative viability (KN-93 + Pictilisib; first compound 2.53 µM)	relative viability (KN-93 + Pictilisib; first compound 8 µM)
NCI-H358	0.147	0.133	0.132	0.112	0.14	0.136	0.138	0.131	0.289	0.53	0.273	0.266	0.49	0.528	0.444	0.291	0.39	0.381	0.327	0.28
NCI-H460	0.167	0.111	0.195	0.0953	0.167	0.0991	0.147	0.205	0.0407	0.0268	0.0273	0.0309	0.302	1.27	1.12	0.45	0.301	0.329	0.465	0.117
NCI-H520	0.591	0.783	0.682	0.641	0.219	0.218	0.251	0.201	0.246	0.212	0.281	0.224	–	0.904	1.05	0.727	–	0.32	0.297	0.26
NCI-H647	0.353	0.499	0.468	0.466	0.346	0.364	0.349	0.473	0.168	0.145	0.13	0.109	0.836	1.07	1.26	0.819	0.493	0.327	0.462	0.336
NCI-H650	0.933	1.08	0.998	0.794	0.314	0.307	0.327	0.271	0.697	0.76	0.855	0.579	1.19	1.04	1.29	0.615	0.906	0.892	1.06	0.605
NCI-H661	0.525	0.563	0.472	0.383	0.439	0.409	0.308	0.308	0.896	1.06	0.851	0.542	0.484	0.511	0.448	0.447	0.396	0.417	0.336	0.253
NCI-H727	0.32	–	0.384	0.409	0.606	–	0.67	0.655	0.367	0.326	0.351	0.376	0.776	0.762	0.802	0.486	0.434	0.264	0.379	0.231
NCI-H838	0.563	0.482	0.522	0.509	0.222	0.182	0.216	0.212	0.306	0.268	0.197	0.223	0.903	0.78	1.12	0.746	0.556	0.378	0.391	0.362
NCI-H1355	0.436	0.324	0.375	0.343	0.427	0.342	0.436	0.332	0.616	0.636	0.574	0.552	0.954	0.79	1.05	0.913	0.391	0.352	0.389	0.295
NCI-H1395	1.03	1.19	1.07	0.775	0.602	0.69	0.598	0.478	0.631	0.619	0.664	0.604	1.63	1.11	1.04	0.679	0.654	0.682	1.02	0.477
NCI-H1437	0.444	0.471	0.454	0.377	0.325	0.285	0.271	0.294	0.999	1.3	0.907	0.559	0.632	0.963	0.875	0.425	0.416	0.379	0.394	0.301
NCI-H1650	0.611	0.508	0.693	0.412	0.377	0.323	0.391	0.269	0.182	0.187	0.208	0.19	0.758	0.754	0.952	0.482	0.527	0.537	0.582	0.239
NCI-H1651	0.79	0.886	0.689	0.683	0.511	0.536	0.582	0.488	0.757	0.829	0.757	0.546	0.732	1.02	0.914	0.664	0.45	0.658	0.532	0.477
NCI-H1666	0.899	0.788	1.07	0.716	0.639	0.656	0.669	0.622	0.946	1.13	1.1	0.941	0.747	0.638	0.679	0.532	0.56	0.388	0.489	0.527
NCI-H1734	0.624	0.775	0.653	0.405	0.345	0.396	0.335	0.263	0.167	0.17	0.181	0.179	1.15	1.1	1.6	0.88	0.534	0.548	0.492	0.29
NCI-H1755	0.717	0.827	0.76	0.699	0.478	0.462	0.45	0.455	0.457	0.436	0.285	0.221	1.02	1.26	1.04	0.561	0.413	0.429	0.475	0.205

Cell Line	relative viability (KN-93 + Trametinib; first compound 0.08 µM)	relative viability (KN-93 + Trametinib; first compound 0.253 µM)	relative viability (KN-93 + Trametinib; first compound 2.53 µM)	relative viability (KN-93 + Trametinib; first compound 8 µM)	relative viability (KN-93 + Palbociclib; first compound 0.08 µM)	relative viability (KN-93 + Palbociclib; first compound 0.253 µM)	relative viability (KN-93 + Palbociclib; first compound 2.53 µM)	relative viability (KN-93 + Palbociclib; first compound 8 µM)	relative viability (KN-93 + Luminespib; first compound 0.08 µM)	relative viability (KN-93 + Luminespib; first compound 0.253 µM)	relative viability (KN-93 + Luminespib; first compound 2.53 µM)	relative viability (KN-93 + Luminespib; first compound 8 µM)	relative viability (KN-93 + Lapatinib; first compound 0.08 µM)	relative viability (KN-93 + Lapatinib; first compound 0.253 µM)	relative viability (KN-93 + Lapatinib; first compound 2.53 µM)	relative viability (KN-93 + Lapatinib; first compound 8 µM)	relative viability (KN-93 + Pictilisib; first compound 0.08 µM)	relative viability (KN-93 + Pictilisib; first compound 0.253 µM)	relative viability (KN-93 + Pictilisib; first compound 2.53 µM)	relative viability (KN-93 + Pictilisib; first compound 8 µM)
NCI-H1792	0.277	0.441	0.487	0.275	0.401	0.649	0.796	0.605	0.272	0.396	0.31	0.367	–	0.904	1.67	0.818	–	0.233	0.253	0.223
NCI-H1793	0.44	0.42	0.472	0.339	0.38	0.311	0.318	0.253	0.193	0.179	0.195	0.166	–	0.804	0.992	0.556	–	0.334	0.382	0.267
NCI-H1915	0.304	0.339	0.281	0.247	0.536	0.537	0.513	0.438	0.567	1.47	0.846	0.748	0.963	1.25	1.01	0.908	0.967	0.865	0.928	0.806
NCI-H1944	0.419	0.385	0.432	0.328	0.368	0.328	0.327	0.243	0.741	0.699	0.729	0.43	0.84	0.793	0.96	0.771	0.372	0.292	0.332	0.34
NCI-H1975	0.29	0.291	0.307	0.179	0.475	0.477	0.742	0.193	0.187	0.241	0.164	0.135	0.656	1.05	0.976	0.579	0.281	0.267	0.28	0.25
NCI-H1993	0.547	0.542	0.498	0.501	0.628	0.563	0.595	0.498	0.677	0.756	0.929	0.638	0.693	0.772	0.862	0.758	0.689	1.07	0.761	0.754
NCI-H2009	0.319	0.283	0.271	0.188	0.244	0.204	0.217	0.196	1.05	1.11	1.08	0.746	0.899	0.891	0.814	0.418	0.841	1.01	0.761	0.345
NCI-H2023	0.55	0.459	0.628	0.434	0.384	0.436	0.49	0.227	0.693	0.703	0.872	0.358	0.804	0.858	0.932	0.239	0.3	0.212	0.22	0.167
NCI-H2085	0.508	0.506	0.575	0.459	0.484	0.427	0.456	0.387	0.441	0.371	0.441	0.356	0.816	0.695	0.803	0.541	0.438	0.452	0.518	0.414
NCI-H2087	0.249	0.15	0.19	0.128	0.228	0.218	0.208	0.175	0.16	0.182	0.184	0.133	1.06	1.22	1.02	0.286	0.839	0.967	0.898	0.466
NCI-H2126	0.468	0.453	0.593	0.466	0.341	0.333	0.362	0.354	1.03	0.984	0.941	0.708	0.806	0.659	0.804	0.702	0.482	0.443	0.499	0.468
NCI-H2170	0.796	1.16	1.02	0.834	0.35	0.48	0.403	0.338	0.785	0.852	0.963	0.483	0.271	0.257	0.274	0.249	0.303	0.266	0.319	0.255
NCI-H2228	0.413	0.539	0.573	0.153	0.723	0.97	1.09	0.165	0.174	0.126	0.163	0.134	1.15	1.17	1.04	0.728	0.251	0.324	0.384	0.329
NCI-H2347	0.28	0.316	0.282	0.26	0.378	0.44	0.434	0.407	0.618	0.728	0.458	0.511	0.932	0.921	1.17	0.595	0.572	0.616	0.696	0.543
NCI-H2405	0.603	0.598	0.665	0.491	0.561	0.594	0.547	0.471	0.752	0.76	0.778	0.446	1.17	1.09	1.06	0.659	0.407	0.319	0.446	0.305
